The values that follow come from PMC5989272, “Transfer Hydrogenation and Antiproliferative Activity of Tethered Half-Sandwich Organoruthenium Catalysts” (Organometallics, 2018).

Bounds are passed on as bounds.

For data set [1], the system named is A2780 human ovarian cancer cells. The experiment in a line: Antiproliferative activity (SRB assay), A2780. The class given is cell-based. Particulars: 24 h drug exposure, 72 h recovery in drug-free medium. The procedure:
(§1) A2780 and A2780Cis human ovarian, A549 human lung, HEPG 2 human hepatocellular, MCF 7 human breast cancer, and MRC 5 human normal fibroblast cell lines were grown in Roswell Park Memorial Institute medium (RPMI-1640) supplemented with 10% of fetal calf serum, 1% of 2 mM glutamine, and 1% penicillin/streptomycin. All cells were grown as adherent monolayers at 310 K with 5% CO2 humidified, and all cells were passaged at ca. 80% confluency.
(§2) The antiproliferative activity and cytotoxicity of complexes 1–4 were determined in five different cancer cell lines and one human normal cell line. In general, about 5000 cells per well were seeded in 96-well plates. The plates were preincubated with drug-free medium at 310 K for 48 h before adding the tested compounds (various concentrations). Stock solutions of complexes 1–4 were prepared in DMSO/cell culture medium, and exact complex concentrations were determined by ICP-OES. […] A further cell recovery for 72 h was allowed in drug-free medium at 310 K. The sulforhodamine B (SRB) assay was used to determine cell viability. IC50 values, as the concentration that causes 50% cell death, were determined as duplicates of triplicates in two independent sets of experiments, and their standard deviations were calculated.

For data set [2] the following is noted: NAD+ to NADH, formate hydride donor; Ru/NAD+/formate 1/6/1200, pH 7.2, 310 K, 340 nm. The procedure: (§3) Catalytic transfer hydrogenation reactions of complexes 1–4 and sodium formate as hydride donor for conversion of nicotinamide adenine dinucleotide (NAD^+) to NADH were studied in aqueous media by UV–visible spectroscopy by following the absorbance at 340 nm for NADH and by ^1H NMR spectroscopy (20% DMSO-d6 in D2O) by monitoring peaks corresponding to 1,4-NADH.
Complexes 1–4 were dissolved in DMSO/H2O (1/9 v/v) (84 μM) in a glass vial. Solutions of sodium formate (102 mM) and NAD^+ in H2O (510 μM) were also prepared and then mixed at 310 K. In a typical experiment, an aliquot of 330 μL from each solution was placed in a 1 mL cuvette and the pH adjusted to 7.2 before the sample was introduced into the UV–vis instrument, giving a total volume of 1 mL (final concentrations were Ru complex 28 μM, NAD^+ 170 μM, NaHCO2 34 mM, molar ratio 1/6/1200). UV spectra were recorded every 5 min until completion of the reaction. The spectrum was monitored for an increase in the band at 340 nm, which corresponds to the absorption of NADH.

The test system of data set [3] is MRC5 normal human lung fibroblast cells. The experiment in a line: Cytotoxicity (SRB assay), MRC5 normal fibroblasts. The class given is cell-based. The following applies: 24 h drug exposure, 72 h recovery, read-out: IC50 MRC 5. The procedure:
as §1, §2
On the technique in general: In SRB staining, fixed cells bind dye roughly in proportion to their protein.

The test system of data set [4] is A2780Cis cisplatin-resistant ovarian cancer cells. As to the kind of experiment: Antiproliferative activity (SRB assay), A2780Cis. Format: cell-based, human. The following applies: for IC50: 24 h drug exposure, 72 h recovery in drug-free medium; for RI (resistance index): ratio of IC50 A2780Cis to parental A2780. How it is done: as §1, §2
The subject of data set [5] is A549 human lung cancer cells. As to the kind of experiment: Antiproliferative activity (SRB assay), A549. Particulars: 24 h drug exposure, 72 h recovery in drug-free medium. The class given is cell-based. How it is done: as §1, §2
Data set [6] has as its system MCF7 human breast cancer cells. The experiment in a line: Antiproliferative activity (SRB assay), MCF7. Format: cell-based. The following applies: 24 h drug exposure, 72 h recovery in drug-free medium; read-out: IC50 MCF 7. The procedure: as §1, §2
The subject of data set [7] is HEPG2 human hepatocellular cancer cells. The experiment in a line: Antiproliferative activity (SRB assay), HEPG2. The class given is cell-based. The following applies: 24 h drug exposure, 72 h recovery in drug-free medium. The procedure:
as §1, §2

For data set [8] the following is noted: NAD+ to NADH, formate hydride donor; Ru/NAD+/formate 1/4/25, DMSO-d6/D2O, pH* 7.2, 310 K. How it is done: as §3
Complexes 1–4 were dissolved in DMSO-d6/D2O (3/2 v/v; 1.4 mM) in a glass vial. Aliquots (200 μL) of solutions of sodium formate (35 mM) and NAD^+ (5.6 mM) in D2O were added, and the pH* was adjusted to 7.2 ± 0.1, for a final volume of 0.64 mL (Ru complex 0.44 mM, NAD^+ 1.75 mM, NaHCO2 10.94 mM; molar ratio 1/4/25). The solution was transferred to a 5 mm NMR tube, and a ^1H NMR spectrum was recorded at 310 K every 162 s until the completion of the reaction. Molar ratios of NAD^+ and NADH were determined by integrating the peaks corresponding to resonances for NAD^+ (9.33 ppm) and 1,4-NADH (6.96 ppm). The turnover number (TON) for the reaction was calculated [drawing 1] where In is the integral of the signal at n ppm and [NAD^+] is the concentration of NAD^+ at the start of the reaction.

On the set-up of data set [9]: method as in PMID 16604356. The following applies: cited from earlier work.
The subject of data set [10] is A2780 human ovarian cancer cells. The experiment in a line: Cell viability on coincubation with sodium formate (SRB). Particulars: 0.5, 1 and 2 mM sodium formate.
Data set [11] has the same test system. The following applies: 24 h exposure at equipotent IC50 concentration, no recovery. The procedure:
(§4) ICP-MS and ICP-OES analyses were carried out on Agilent Technologies 7500 series and PerkinElmer Optima 5300 DV series instruments, respectively. The double-deionized (DDW) water used for both analyses was from a Millipore Milli-Q water purification system and a USF Elga UHQ water deionizer. The Ruthenium Specpure plasma standard (ruthenium chloride, 1004 ± 5 μg/mL in 10% v/v hydrochloric acid) was diluted with 3.6% v/v HNO3, and calibrants were prepared freshly at concentrations of 0.1–500 ppb for ICP-MS and 50–700 ppb for ICP-OES. In particular, calibration standards for ICP-OES analysis were adjusted with standard sodium chloride (TraceSELECT) solution to match the sample salinity. The instrument was set to detect ^101Ru with typical detection using no-gas mode for ICP-MS analysis.
(§5) Cellular Ru accumulations for complexes 2 and 4 were determined on A2780 ovarian and A2780 cisplatin-resistant ovarian cancer cells. Approximately 2 × 10^6 cells were seeded in a six-well plate and preincubated in drug-free medium at 310 K for 24 h, and stock solutions of both complexes were prepared in a mixture of DMSO/cell culture medium and their accurate Ru concentrations were determined by ICP-OES. […] After this time, cells were treated with trypsin and counted and cell pellets were collected. […] Statistical significances of variations were determined using Welch’s t-tests.

For a further data set, the system named is A2780Cis cells. The following applies: 24 h exposure at equipotent IC50 concentration, no recovery. The procedure: as §4, §5
Data set [12] deals with A2780 human ovarian cancer cells. As to the kind of experiment: ROS/superoxide induction (flow cytometry). Format: cell-based. The following applies: IC50 concentration, 24 h; pyocyanin 30 min. The procedure:
The total level of oxidative stress, including H2O2, peroxy and hydroxyl radical, peroxynitrite, NO, and superoxide production, was monitored using the green channel FL1 and orange channel FL2, respectively.
Positive controls were obtained by exposure of cells to pyocyanin for 30 min. Data were processed using Flowjo software. At all times, samples were kept under dark conditions to avoid light-induced ROS production.

The test system of data set [13] is double-helical calf thymus DNA (ct-DNA). The experiment in a line: Binding to calf thymus DNA (FAAS after dialysis). Particulars: ri 0.1 and 0.5, 10 mM NaClO4, 310 K, 24 h.
Method: The reaction was terminated after 24 h of incubation, and samples were exhaustively dialyzed against water. The ruthenium content in these samples was determined by flameless atomic absorption spectrometry (FAAS) and the concentration of DNA by absorption spectrophotometry.
Data set [14] has as its system single-stranded 50-mer oligonucleotide. The experiment in a line: Binding to single-stranded 50-mer oligonucleotide (FAAS). The following applies: ri = 0.5, 0.05 M NaClO4, 310 K, 24 h, dark. How it is done: (§6) After 24 h the reaction was stopped, and samples were exhaustively dialyzed against water. The ruthenium contents in these samples were determined by FAAS, and the concentrations of DNA were determined by absorption spectroscopy.

Data set [15] deals with double-stranded 50-mer oligonucleotide. As to the kind of experiment: Binding to double-stranded 50-mer oligonucleotide (FAAS). Particulars: ri = 0.5, 0.05 M NaClO4, 310 K, 24 h, dark. The procedure: as §6

In the case of “[Ru(η^6-Ph(CH2)3-ethylenediamine-N-Ms)Cl] [Complex 1]”, the concentration for half-maximal inhibition (IC50) in data set [1] is 23 ± 1 µM; in data set [3], 31 ± 1 µM; in [4], above 50 µM; in [5], 33 ± 1 µM; in [6], 28.9 ± 0.9 µM; in data set [7] it was 27.8 ± 0.1 µM. Further, the “TOF (UV–vis)” value in data set [2] stood at 5.8 ± 0.2 h^–1. In addition, the “RI (resistance index)” value in data set [4] was above 2. The “TOF (NMR)” value in [8] is on record as 3.79 ± 0.05 h^–1.

For `[NH2][Pt]([NH2])([Cl])[Cl]` [CDDP, cisplatin, reference compound], the IC50 was determined as 1.2 ± 0.02 µM in data set [1]; 12.8 ± 0.3 µM in [3]; 13.4 ± 0.3 µM in [4]; 3.1 ± 0.1 µM in data set [5]; 7.3 ± 0.2 µM in data set [6]; 5.7 ± 0.9 µM in data set [7]. The “selectivity index between MRC5 normal cells and A2780Cis cancer cells” value in data set [4] (MRC5 vs A2780Cis) was determined as 0.95. Further, in data set [4], the “RI (resistance index)” value is reported as 11.

For `F[P-](F)(F)(F)(F)F.NCCN.[Cl][Ru+].c1ccc(-c2ccccc2)cc1` [RM175, [(η^6-biph)Ru(en)Cl]PF6], the “TOF for TH reduction of NAD+” value in [9] is 0.18 h^–1.

Consider `O=C[O-].[Na+]` [sodium formate], for which, in [10], the “toxicity of formate alone” value is listed as “not toxic”.

On to “[Ru(η^6-Ph(CH2)3-ethylenediamine-N-Nb)Cl] [Complex 4]”, for which the IC50 in [1] was 16 ± 0.3 µM; in data set [3], 26 ± 1 µM; in data set [4], above 50 µM; in data set [5], 30 ± 1 µM; in data set [6], 9.9 ± 0.5 µM; in [7], 23 ± 4 µM. Moreover, the “TOF (UV–vis)” value in data set [2] worked out at 9.9 ± 0.2 h^–1. Further, the “RI (resistance index)” value in data set [4] is above 3. Further, the “cellular Ru content” value is reported as 150 ± 38 ng per million cells in data set [11] and 241 ± 10 ng per million cells with A2780Cis cells. Moreover, the “TOF (NMR)” value in data set [8] worked out at 8.5 ± 0.2 h^–1.

For `Cn1c2cccc(=O)c-2nc2ccccc21` [Pyocyanin, pyocyanin], in data set [12], the “Cell Populations FL-1+/FL-2+” value is 96.1 ± 0.8%, the “Cell Populations FL-1+/FL-2- (total oxidative stress)” value amounted to 1.5 ± 0.6%, the “Cell Populations FL-1-/FL-2+ (superoxide)” value is 2.5 ± 0.9% and the “Cell Populations FL-1-/FL-2-” value was found to be 0.45 ± 0.08%.

For the molecule `Cc1ccc(C(C)C)cc1.Cc1ccc(S(=O)(=O)[N](CCN)[Ru][Cl])cc1` [JS2, [(η^6-p-cym)Ru(TsEn)Cl]], the “ruthenium bound to ct-DNA” value in [13] is listed as “No detectable amount of ruthenium”. For the same molecule, the “Ru bound to single-stranded oligonucleotide” value in data set [14] is “No Ru associated”. For the same molecule, in [9], the “TOF for TH reduction of NAD+” value is reported as 2.88 h^–1. For the same molecule, the “Ru bound to double-stranded oligonucleotide” value in [15] is “No Ru associated”.

For “[Ru(η^6-Ph(CH2)3-ethylenediamine-N-Tf)Cl] [Complex 3]”, the IC50 in data set [1] is above 50 µM; in data set [3], 28 ± 3 µM; in data set [4] it was above 50 µM; in data set [5], 31 ± 2 µM; in [6], 24 ± 3 µM; in data set [7], above 50 µM. In addition, in [2], the “TOF (UV–vis)” value worked out at 8.69 ± 0.07 h^–1. Besides, the “TOF (NMR)” value in [8] came to 8.9 ± 0.3 h^–1.

The IC50 is the concentration at which inhibition is half-maximal.
